The structures appear in SMILES notation. Some results are limits rather than exact numbers.

T1 sequence (P16473 21-764): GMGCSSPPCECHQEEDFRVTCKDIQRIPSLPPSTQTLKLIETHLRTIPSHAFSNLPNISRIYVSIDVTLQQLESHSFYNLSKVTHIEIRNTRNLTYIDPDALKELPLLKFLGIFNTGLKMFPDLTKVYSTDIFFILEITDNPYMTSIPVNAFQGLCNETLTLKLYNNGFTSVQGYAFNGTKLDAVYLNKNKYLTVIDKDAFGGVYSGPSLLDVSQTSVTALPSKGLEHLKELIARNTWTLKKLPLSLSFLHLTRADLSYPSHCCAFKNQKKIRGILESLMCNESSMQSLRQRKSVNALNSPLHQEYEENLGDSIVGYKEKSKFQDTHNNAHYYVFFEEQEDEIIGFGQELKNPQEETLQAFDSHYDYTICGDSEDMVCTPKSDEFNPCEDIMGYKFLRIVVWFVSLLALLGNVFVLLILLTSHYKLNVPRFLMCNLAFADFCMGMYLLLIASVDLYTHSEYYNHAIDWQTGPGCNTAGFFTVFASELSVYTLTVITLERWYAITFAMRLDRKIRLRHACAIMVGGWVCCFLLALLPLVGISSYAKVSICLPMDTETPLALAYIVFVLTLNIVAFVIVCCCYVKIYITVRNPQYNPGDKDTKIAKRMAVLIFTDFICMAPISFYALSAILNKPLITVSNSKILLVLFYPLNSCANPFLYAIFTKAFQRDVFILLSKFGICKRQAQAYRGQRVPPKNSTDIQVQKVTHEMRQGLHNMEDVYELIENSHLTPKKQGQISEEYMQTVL

One experiment addresses T1, human TSHR (Homo sapiens, UniProt P16473).
T1 construct: expressed in transfected cells
As to the kind of experiment: Antagonist activity using TSH-induced cAMP generation in human TSHR-stably expressing CHO cells. It counts as cell-based. The settings on record: human TSH 50 ng/mL. The protocol:
Measurement of antagonist activity using TSH-induced cAMP generation in human TSHR-stably expressing CHO cells as an indicator
The gene sequence (reference number: NM_000369.2) of a human TSHR was inserted into multiple cloning sites of pcDNA3.1 (+). Prepared plasmid vectors were introduced into CHO cells using a lipofection method, and human TSHR-stably expressing CHO cells were established. Obtained cells were seeded in a 96-well poly-D-lysine-coated plate at 5 × 10^4 cells/well and cultured in an F12 culture medium containing 10%FBS, 400 µg/mL of G418, 50 U/mL of penicillin, and 50 µg/mL of streptomycin under conditions of 37°C and 5% CO2 for one day. After the culture medium was removed, the cells were washed twice with 100 µL of an assay buffer solution (Hanks' Balanced Salt Solution containing 20 mM HEPES and 1 mM IBMX) per well. 30 µL of a test compound-containing assay buffer solution was added to the well and incubated at room temperature for 15 minutes. Next, 30 µL of an assay buffer solution containing human TSH (final concentration: 50 ng/mL, R&D Systems, Inc.) was added thereto and incubated at 37°C for one hour. A supernatant was removed, a Lysis and Detection Buffer 2(Cisbio) was added thereto, and the mixture was incubated at room temperature for one hour to prepare a cell lysate. According to the instruction manual of a cAMP Gs HiRange kit (Cisbio), the cell lysate, d2-labeled cAMP, and anti-cAMP Europium Cryptate labeled antibodies (Cisbio) were reacted together in a 384-well white microplate. Next, fluorescence intensity ratios (measurement wavelengths: 665 nm/620 nm) were measured using a multi-plate reader (PHERAstar FSX, BMG LABTECH, Japan). The fluorescence intensity ratio of each sample was converted to a cAMP content using a standard curve. The cAMP content was converted as a percentage of the control value to calculate a cAMP generation rate. The cAMP generation rates were plotted against the test compound concentrations using Prism (Graph Pad Software Inc.) to calculate IC50 values. The IC50's of the individual test compounds are shown in the above tables. In the tables, IC50 < 0.3 µM was denoted as A, and 0.3 µM ≤ IC50 < 30 µM was denoted as B. Cases where the IC50 values were not calculated for test compounds from which activity was recognized are denoted as C.
What is called IC50 is the point on the concentration scale where inhibition reaches its midpoint. `CC(C)(C)OC(=O)Nc1ccc(-c2cccnc2CCC(N)=O)c(C(=O)c2ccccc2C(F)(F)F)c1F` [Example E-8, tert-Butyl (4-(2-(3-amino-3-oxopropyl)pyridin-3-yl)-2-fluoro-3-(2-(trifluoromethyl)benzoyl)phenyl)carbamate] yielded an IC50 below 0.3 µM.

The compound `NC(=O)CCc1ncccc1-c1ccc(NC(=O)OC2CC(F)(F)C2)c(F)c1C(=O)c1ccccc1C(F)(F)F` [Example E-9, 3,3-Difluorocyclobutyl (4-(2-(3-amino-3-oxopropyl)pyridin-3-yl)-2-fluoro-3-(2-(trifluoromethyl)benzoyl)phenyl)carbamate] returned an IC50 of 0.3 to 30 µM.

`CC(C)(C)OC(=O)Nc1ccc(-c2cccnc2CNC(N)=O)c(Cc2ncccc2F)c1F` [Example F-1, tert-Butyl (2-fluoro-3-((3-fluoropyridin-2-yl)methyl)-4-(2-(ureidomethyl)pyridin-3-yl)phenyl)carbamate]: the IC50 fell in the range of 0.3 to 30 µM.

For `CC(C)(C)OC(=O)Nc1ccc(-c2cccnc2CCC(N)=O)c(Cc2ncccc2F)c1F` [Example F-2, tert-Butyl (4-(2-(3-amino-3-oxopropyl)pyridin-3-yl)-2-fluoro-3-((3-fluoropyridin-2-yl)methyl)phenyl)carbamate], the IC50 lay in the range of 0.3 to 30 µM.

`C[C@@H](OC(=O)Nc1ccc(-c2cccnc2CCC(N)=O)c(Cc2ncccc2F)c1F)C1CC1` [Example F-3, (R)-1-Cyclopropylethyl (4-(2-(3-amino-3-oxopropyl)pyridin-3-yl)-2-fluoro-3-((3-fluoropyridin-2-yl)methyl)phenyl)carbamate]: the IC50 was below 0.3 µM.

In turn, `CC(C)(C)OC(=O)Nc1ccc(-c2cccnc2CNC(N)=O)c(CN2CCOCC2)c1F` [Example F-4, tert-Butyl (2-fluoro-3-(morpholinomethyl)-4-(2-(ureidomethyl)pyridin-3-yl)phenyl)carbamate] gave an IC50 of 0.3 to 30 µM.

Turning to `C[C@H]1CN(Cc2c(-c3cccnc3CNC(N)=O)ccc(NC(=O)OC(C)(C)C)c2F)CCO1` [Example F-5, tert-Butyl (S)-(2-fluoro-3-((2-methylmorpholino)methyl)-4-(2-(ureidomethyl)pyridin-3-yl)phenyl)carbamate], the IC50 is above 30 µM.

`CC(C)(C)OC(=O)Nc1ccc(-c2cccnc2CNC(N)=O)c(CN2CCCC(F)(F)C2)c1F` [Example F-6, tert-Butyl (3-((3,3-difluoropiperidin-1-yl)methyl)-2-fluoro-4-(2-(ureidomethyl)pyridin-3-yl)phenyl)carbamate] gave an IC50 of 0.3 to 30 µM.

Compound `CC(C)(C)OC(=O)Nc1ccc(-c2cccnc2CNC(N)=O)c(CN2CC3CCC(C2)O3)c1F` [Example F-7, tert-Butyl (3-((8-oxa-3-azabicyclo[3.2.1]octan-3-yl)methyl)-2-fluoro-4-(2-(ureidomethyl)pyridin-3-yl)phenyl)carbamate] returned a half-maximal inhibitory concentration (IC50) of 0.3 to 30 µM.

Consider `CC(C)(C)OC(=O)Nc1ccc(-c2cccnc2CNC(N)=O)c(C(=O)N2CCOCC2)c1F` [Example F-8, tert-Butyl (2-fluoro-3-(morpholine-4-carbonyl)-4-(2-(ureidomethyl)pyridin-3-yl)phenyl)carbamate], for which the IC50 is above 30 µM.

The compound `CC(C)(C)OC(=O)Nc1ccc(-c2cccnc2CNC(N)=O)c(CC2CC2)c1F` [Example F-9, tert-Butyl (3-(cyclopropylmethyl)-2-fluoro-4-(2-(ureidomethyl)pyridin-3-yl)phenyl)carbamate] showed an IC50 of 0.3 to 30 µM.

In turn, `CC1(C(=O)Nc2ccc(-c3cccnc3CNC(N)=O)c(Cc3ccccc3F)c2F)CC1` [Example G-1, N-(2-Fluoro-3-(2-fluorobenzyl)-4-(2-(ureidomethyl)pyridin-3-yl)phenyl)-1-methylcyclopropane-1-carboxamide] had an IC50 of 0.3 to 30 µM.

On to `CC(C)C(=O)Nc1ccc(-c2cccnc2CNC(N)=O)c(Cc2ccccc2F)c1F` [Example G-2, N-(2-Fluoro-3-(2-fluorobenzyl)-4-(2-(ureidomethyl)pyridin-3-yl)phenyl)isobutylamide], for which the IC50 was in the range of 0.3 to 30 µM.

Consider `NC(=O)NCc1ncccc1-c1ccc(NC(=O)C2CC2)c(F)c1Cc1ccccc1F` [Example G-3, N-(2-Fluoro-3-(2-fluorobenzyl)-4-(2-(ureidomethyl)pyridin-3-yl)phenyl)cyclopropanecarboxamide], for which the IC50 was in the range of 0.3 to 30 µM.

`NC(=O)NCc1ncccc1-c1ccc(NC(=O)C2CC(F)(F)C2)c(F)c1Cc1ccccc1F` [Example G-4, 3,3-Difluoro-N-(2-fluoro-3-(2-fluorobenzyl)-4-(2-(ureidomethyl)pyridin-3-yl)phenyl)cyclobutane-1-carboxamide]: the IC50 is below 0.3 µM.

Regarding `NC(=O)NCc1ncccc1-c1ccc(NC(=O)C2CCCO2)c(F)c1Cc1ccccc1F` (centres unmarked) [Example G-5], the IC50 is 0.3 to 30 µM.

As to `NC(=O)NCc1ncccc1-c1ccc(NC(=O)N2CCCC2)c(F)c1Cc1ccccc1F` [Example G-6], the IC50 is 0.3 to 30 µM.

As to `NC(=O)NCc1ncccc1-c1ccc(NC(=O)N2CC3(CCC3)C2)c(F)c1Cc1ccccc1F` [Example G-7, N-(2-Fluoro-3-(2-fluorobenzyl)-4-(2-(ureidomethyl)pyridin-3-yl)phenyl)-2-azaspiro[3.3]heptane-2-carboxamide], the IC50 is below 0.3 µM.

`NC(=O)NCc1ncccc1-c1ccc(NC(=O)NC2CCCC2)c(F)c1Cc1ccccc1F` [Example G-8, 1-Cyclopentyl-3-(2-fluoro-3-(2-fluorobenzyl)-4-(2-(ureidomethyl)pyridin-3-yl)phenyl)urea] registered an IC50 below 0.3 µM.

In turn, `CON(C(=O)Nc1ccc(-c2cccnc2CNC(N)=O)c(Cc2ccccc2F)c1F)C1CCCC1` [Example G-9, 1-Cyclopentyl-3-(2-fluoro-3-(2-fluorobenzyl)-4-(2-(ureidomethyl)pyridin-3-yl)phenyl)-1-methoxyurea] returned an IC50 of 0.3 to 30 µM.

Regarding `CC(C)(C)OC(=O)Nc1ccc(-c2nccnc2CCC(N)=O)c(Cc2ccccc2)c1F` [Example H-1, tert-Butyl (4-(3-(3-amino-3-oxopropyl)pyrazin-2-yl)-3-benzyl-2-fluorophenyl)carbamate], the IC50 lay in the range of 0.3 to 30 µM.

The target of another experiment is T2, TSHR (Mus musculus, UniProt P47750).
T2 construct: host or cells: mice in vivo (endogenous thyroid TSHR)
T2 sequence (P47750 22-764): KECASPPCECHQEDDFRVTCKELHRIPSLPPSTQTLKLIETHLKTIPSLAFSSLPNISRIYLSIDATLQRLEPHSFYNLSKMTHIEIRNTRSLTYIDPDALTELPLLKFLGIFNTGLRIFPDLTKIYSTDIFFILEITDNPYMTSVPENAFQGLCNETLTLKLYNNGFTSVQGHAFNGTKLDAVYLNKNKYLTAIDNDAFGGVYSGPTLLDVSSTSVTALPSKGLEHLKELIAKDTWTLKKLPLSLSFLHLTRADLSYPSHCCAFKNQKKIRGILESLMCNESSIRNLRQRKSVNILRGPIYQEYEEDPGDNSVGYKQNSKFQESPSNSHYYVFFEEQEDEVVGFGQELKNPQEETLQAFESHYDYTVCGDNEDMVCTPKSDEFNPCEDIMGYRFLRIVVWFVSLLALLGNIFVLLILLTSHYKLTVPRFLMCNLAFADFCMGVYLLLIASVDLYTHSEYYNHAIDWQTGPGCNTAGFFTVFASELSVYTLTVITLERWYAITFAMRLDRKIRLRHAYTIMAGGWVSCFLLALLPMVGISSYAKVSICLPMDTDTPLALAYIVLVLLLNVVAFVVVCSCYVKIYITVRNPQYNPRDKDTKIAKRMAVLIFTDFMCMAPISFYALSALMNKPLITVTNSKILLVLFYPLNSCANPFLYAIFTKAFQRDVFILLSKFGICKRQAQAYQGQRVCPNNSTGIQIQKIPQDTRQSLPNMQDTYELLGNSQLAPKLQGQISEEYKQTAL
Assay: not given
The settings on record: TSH-releasing hormone (TRH)-treated mice; cited from earlier work.
With `COc1ccc(C2Nc3ccccc3C(=O)N2Cc2ccco2)cc1COc1c(C)cc(NC(C)=O)cc1C` (centres unmarked) [NCGC00242364], the “blood T4 concentration” value is “blood T4 concentration lowering effect”.

The same experiment, now with this note: thyroid stimulating antibody M22-treated mice; cited from earlier work.
For `COc1ccc(C2Nc3ccccc3C(=O)N2Cc2ccco2)cc1COc1c(C)cc(NC(C)=O)cc1C` (centres unmarked) [NCGC00242364], the “blood T4 concentration” value was “blood T4 concentration lowering effect”.

(Values after patent publication EP4818158A1, “BIARYL COMPOUND” (Kissei Pharmaceutical Co., Ltd., priority 2023, dated 2025).)
